From ChEMBL document CHEMBL5104105, “Identification of the first structurally validated covalent ligands of the small GTPase RAB27A” (RSC Med Chem, 2022)
The source made the active and inactive calls. The calls are words filed in the database; no cut-off is given here.

Assays:
[1] = species: Homo sapiens; assay: Covalent binding affinity to Spl2/Rab27A C188 mutant fusion protein (unknown origin) assessed as half-life of adduct formation by measuring protein mass shift after 24 hrs by intact-protein mass spectrometry
[2] = species: Homo sapiens; assay: Covalent binding affinity to Spl2/Rab27A C123 mutant fusion protein (unknown origin) assessed as half-life of adduct formation by measuring protein mass shift after 8 hrs by intact-protein mass spectrometry

| SMILES | Activity [1] | Activity [2] |
| --- | --- | --- |
| C=CC(=O)N1CCC[C@H]1c1ccc(OC)cc1 | Active | – |
| C=CC(=O)Nc1nc2ccccc2n1CCc1ccccn1 | Active | Active |
